# Measurements published in US10406151B2, “Method of inducing autophagy” (Mitsubishi Gas Chemical Company, Inc., priority 2016, dated 2019).
# Columns and labels:
# HeLa cells [1] = details: for 50% cell mortality concentration: culture for 1 day, determined from the slope, Cell Counting Kit-8
# Method: (§1) The cells were cultured at 37° C. under 5% CO2. The culture medium used was D-MEM (Invitrogen-Gibco) to which 10% fetal bovine serum was added.
# (§2) After culture for 1 day, the range in which autophagy occurred was measured by fluorescence microscopic observation using a Cyto-ID (registered trademark) autophagy detection kit (Cosmo Bio Co., Ltd.). […] Similarly, the 50% cell mortality concentration was also determined from the slope using a Cell Counting Kit-8 (Dojindo Laboratories Co., Ltd.), which is kit for measuring cell counts.
# HeLa cells [2] = experiment: Evaluation of autophagy by fluorescence microscopy with Cyto-ID autophagy detection kit; type: cell-based; details: culture for 1 day, fluorescence intensity same as rapamycin of the kit as reference
# Method: as §1, §2
Compound,50% cell mortality concentration (HeLa cells [1]),concentration inducing autophagy equal to rapamycin reference (HeLa cells [2]),toxicity among the pyrroloquinoline quinone species (in words) (HeLa cells [1]; conclusion from Table 1)
"COC(=O)c1cc(C(=O)OC)c2c(n1)C(=O)C(=O)c1cc(C(=O)OC)[nH]c1-2 [Example 2, Trimethyl 4,5-Dioxo-4,5-dihydro-1H-pyrrolo[2,3-f]quinoline-2,7,9-tricarboxylate]",16 mg/L,0.8 mg/L,
"C[S+](C)[O-] [comparative example 1, dimethyl sulfoxide, reference compound]",674 mg/L,at least 1000 mg/L,
"O=C(O)c1cc(C(=O)O)c2c(n1)C(=O)C(=O)c1cc(C(=O)O)[nH]c1-2 [Example 1, Disodium 4,5-Dioxo-4,5-dihydro-1H-pyrrolo[2,3-f]quinoline-2,7,9-tricarboxylic Acid]",123 mg/L,0.8 mg/L,
"COC(=O)c1cc(C(=O)OC)c2c(n1)C(=O)C(OC)(OC)c1cc(C(=O)OC)[nH]c1-2 [Example 5, Trimethyl 4,4-Dimethoxy-5-oxo-4,5-dihydro-1H-pyrrolo[2,3-f]quinoline-2,7,9-tricarboxylate]",at least 1000 mg/L,0.8 mg/L,lowest toxicity
"O=C(O)c1cc(C(=O)O)c2c(n1)c(O)c(O)c1cc(C(=O)O)[nH]c12 [Example 3, 4,5-Dihydroxy-1H-pyrrolo[2,3-f]quinoline-2,7,9-tricarboxylic Acid]",48 mg/L,12.5 mg/L,
